Laboratory results taken from article PMC10787358 (Science translational medicine, 2023).

How the values were obtained:
[1] = test system: SARS-CoV-2 Beta and Delta variants; type: cell-based
SARS-CoV-2 = test system: SARS-CoV-2; design: species or system hACE2 transgenic mice; conditions: mouse, in vivo
[2] = test system: SARS-CoV-2 WT, Beta, Delta, Omicron BA.2; type: cell-based; conditions: UDCA 10 μM, ML364 4 μM, MS102 4 μM, 48 h

Cc1ccc(S(=O)(=O)Nc2cc(C(F)(F)F)ccc2C(=O)Nc2nc(-c3ccccc3)cs2)cc1 [ML364]
inhibition of authentic SARS-CoV-2 variants [1]: broad inhibition
therapeutic effectiveness against SARS-CoV-2 infection (SARS-CoV-2): substantial therapeutic potential

Cc1ccc(S(=O)(=O)Nc2ccc(C(F)(F)F)cc2C(=O)Nc2nc(-c3ccc(Br)cc3)cs2)cc1 [MS102]
inhibition of infection of Calu-3 cells by authentic SARS-CoV-2 (TCID50) [2]: superior activity

C[C@H](CCC(=O)O)[C@H]1CC[C@H]2[C@@H]3[C@@H](O)C[C@@H]4C[C@H](O)CC[C@]4(C)[C@H]3CC[C@]12C [UDCA, ursodeoxycholic acid]
inhibition of infection of Calu-3 cells by authentic SARS-CoV-2 (TCID50) [2]: exhibited efficacy
